Experimental data as given in PubChem BioAssay AID1259407 (Chemical Carcinogenesis Research Information System (CCRIS), 2018).
The source made the active and inactive calls. No rule for the calls is given here.

System: CCRIS mutagenicity, Ames/micronucleus/aberration tests
Experiment: CCRIS mutagenicity studies
Description: The CCRIS database contains chemical records with carcinogenicity, mutagenicity, tumor promotion, and tumor inhibition test results. It was developed by the National Cancer Institute (NCI). Data are derived from studies cited in primary journals, current awareness tools, NCI reports, and other sources. Test results have been reviewed by experts in carcinogenesis and mutagenesis.
CCRIS provides historical information from the years 1985 - 2011. It is no longer updated.
This is an archive assay for CCRIS mutagenicity studies.

[1] = Test System: AMES SALMONELLA TYPHIMURIUM, Strain/Indicator: TA98, Metabolic Activation: NONE, Method: STANDARD PLATE
[2] = Test System: AMES SALMONELLA TYPHIMURIUM, Strain/Indicator: TA98, Metabolic Activation: RAT, LIVER, S-9, AROCLOR 1254, Method: STANDARD PLATE
[3] = Test System: AMES SALMONELLA TYPHIMURIUM, Strain/Indicator: TA100, Metabolic Activation: NONE, Method: STANDARD PLATE
[4] = Test System: AMES SALMONELLA TYPHIMURIUM, Strain/Indicator: TA100, Metabolic Activation: RAT, LIVER, S-9, AROCLOR 1254, Method: STANDARD PLATE
[5] = Test System: AMES SALMONELLA TYPHIMURIUM, Strain/Indicator: TA1538, Metabolic Activation: NONE, Method: STANDARD PLATE

COCC=O
mutagenic call (Test System: AMES SALMONELLA TYPHIMURIUM, Strain/Indicator: TA97A, Metabolic Activation: NONE, Method: STANDARD PLATE): active; positive | mutagenic call (Test System: AMES SALMONELLA TYPHIMURIUM, Strain/Indicator: TA97A, Metabolic Activation: RAT, LIVER, S-9, AROCLOR 1254, Method: STANDARD PLATE): active; positive | mutagenic call [1]: inactive; negative | mutagenic call [2]: inactive; negative | mutagenic call [3]: inactive; negative | mutagenic call [4]: inactive; negative | mutagenic call (Test System: AMES SALMONELLA TYPHIMURIUM, Strain/Indicator: TA102, Metabolic Activation: NONE, Method: STANDARD PLATE): inactive; negative | mutagenic call (Test System: AMES SALMONELLA TYPHIMURIUM, Strain/Indicator: TA102, Metabolic Activation: RAT, LIVER, S-9, AROCLOR 1254, Method: STANDARD PLATE): inactive; negative | mutagenic call (Test System: CHINESE HAMSTER OVARY, Strain/Indicator: CHO AS52 (GPT)/6-THIOGUANINE, Metabolic Activation: NONE): active; positive | mutagenic call (Test System: CHINESE HAMSTER OVARY, Strain/Indicator: CHO-AS52/6-THIOGUANINE, Metabolic Activation: NONE): active; positive | mutagenic call (Test System: CHINESE HAMSTER OVARY, Strain/Indicator: CHO-K1-BH4 (HGPRT)/6-THIOGUANINE, Metabolic Activation: NONE): inactive; negative | mutagenic call (Test System: CHINESE HAMSTER OVARY, Strain/Indicator: CHO-K1-BH4 (HGPRT)/6-THIOGUANINE, Metabolic Activation: RAT, LIVER, S-9, AROCLOR 1254): inactive; negative | mutagenic call (Test System: CHINESE HAMSTER V-79, Strain/Indicator: V-79 (HPRT)/6-THIOGUANINE, Metabolic Activation: NONE): active; positive

ONc1ccc2c(c1)Cc1ccccc1-2
mutagenic call [1]: active; positive | mutagenic call [2]: active; positive | mutagenic call (Test System: AMES SALMONELLA TYPHIMURIUM, Strain/Indicator: TA98, Metabolic Activation: S-9, Method: STANDARD PLATE): active; positive | mutagenic call [3]: active; positive | mutagenic call (Test System: AMES SALMONELLA TYPHIMURIUM, Strain/Indicator: TA100, Metabolic Activation: S-9, Method: STANDARD PLATE): active; positive | mutagenic call [5]: active; positive | mutagenic call (Test System: AMES SALMONELLA TYPHIMURIUM, Strain/Indicator: YG1020, Metabolic Activation: NONE, Method: PREINCUBATION): active; positive | mutagenic call (Test System: AMES SALMONELLA TYPHIMURIUM, Strain/Indicator: YG1024, Metabolic Activation: NONE, Method: PREINCUBATION): active; positive | mutagenic call (Test System: AMES SALMONELLA TYPHIMURIUM, Strain/Indicator: YG1025, Metabolic Activation: NONE, Method: PREINCUBATION): active; positive | mutagenic call (Test System: AMES SALMONELLA TYPHIMURIUM, Strain/Indicator: YG1029, Metabolic Activation: NONE, Method: PREINCUBATION): active; positive | mutagenic call (Test System: CHINESE HAMSTER OVARY, Strain/Indicator: CHO-K1-BH4 (HGPRT), Metabolic Activation: NONE, Method: SUSPENSION): active; positive | mutagenic call (Test System: E. COLI, Strain/Indicator: WP2, Metabolic Activation: NONE, Method: PREINCUBATION): active; positive | mutagenic call (Test System: E. COLI, Strain/Indicator: WP2 UVRA, Metabolic Activation: NONE, Method: PREINCUBATION): active; positive

C=C(C)C(=O)OCCOC(=O)C(=C)C
mutagenic call (Test System: AMES SALMONELLA TYPHIMURIUM, Strain/Indicator: TA98, Metabolic Activation: HAMSTER, LIVER, S-9, AROCLOR 1254, Method: STANDARD PLATE): inactive; negative | mutagenic call [1]: inactive; negative | mutagenic call (Test System: AMES SALMONELLA TYPHIMURIUM, Strain/Indicator: TA98, Metabolic Activation: RAT, LIVER, AROCLOR 1254, Method: STANDARD PLATE): inactive; negative | mutagenic call [2]: inactive; negative | mutagenic call (Test System: AMES SALMONELLA TYPHIMURIUM, Strain/Indicator: TA98, Metabolic Activation: RAT, LIVER, S-9, SODIUM PHENOBARBITAL, Method: STANDARD PLATE): inactive; negative | mutagenic call (Test System: AMES SALMONELLA TYPHIMURIUM, Strain/Indicator: TA100, Metabolic Activation: HAMSTER, LIVER, S-9, AROCLOR 1254, Method: STANDARD PLATE): inactive; negative | mutagenic call [3]: inactive; negative | mutagenic call [4]: inactive; negative | mutagenic call (Test System: AMES SALMONELLA TYPHIMURIUM, Strain/Indicator: TA100, Metabolic Activation: RAT, LIVER, S-9, SODIUM PHENOBARBITAL, Method: STANDARD PLATE): inactive; negative | mutagenic call (Test System: AMES SALMONELLA TYPHIMURIUM, Strain/Indicator: TA1535, Metabolic Activation: HAMSTER, LIVER, S-9, AROCLOR 1254, Method: STANDARD PLATE): inactive; negative | mutagenic call (Test System: AMES SALMONELLA TYPHIMURIUM, Strain/Indicator: TA1535, Metabolic Activation: NONE, Method: STANDARD PLATE): inactive; negative | mutagenic call (Test System: AMES SALMONELLA TYPHIMURIUM, Strain/Indicator: TA1535, Metabolic Activation: RAT, LIVER, S-9, AROCLOR 1254, Method: STANDARD PLATE): inactive; negative | mutagenic call (Test System: AMES SALMONELLA TYPHIMURIUM, Strain/Indicator: TA1535, Metabolic Activation: RAT, LIVER, S-9, SODIUM PHENOBARBITAL, Method: STANDARD PLATE): inactive; negative | mutagenic call (Test System: AMES SALMONELLA TYPHIMURIUM, Strain/Indicator: TA1537, Metabolic Activation: HAMSTER, LIVER, S-9, AROCLOR 1254, Method: STANDARD PLATE): inactive; negative | mutagenic call (Test System: AMES SALMONELLA TYPHIMURIUM, Strain/Indicator: TA1537, Metabolic Activation: NONE, Method: STANDARD PLATE): inactive; negative | mutagenic call (Test System: AMES SALMONELLA TYPHIMURIUM, Strain/Indicator: TA1537, Metabolic Activation: RAT, LIVER, S-9, AROCLOR 1254, Method: STANDARD PLATE): inactive; negative | mutagenic call (Test System: AMES SALMONELLA TYPHIMURIUM, Strain/Indicator: TA1537, Metabolic Activation: RAT, LIVER, S-9, SODIUM PHENOBARBITAL, Method: STANDARD PLATE): inactive; negative | mutagenic call [5]: inactive; negative | mutagenic call (Test System: AMES SALMONELLA TYPHIMURIUM, Strain/Indicator: TA1538, Metabolic Activation: RAT, LIVER, S-9, AROCLOR 1254, Method: STANDARD PLATE): inactive; negative | mutagenic call (Test System: AMES SALMONELLA TYPHIMURIUM, Strain/Indicator: TA1538, Metabolic Activation: RAT, LIVER, S-9, SODIUM PHENOBARBITAL, Method: STANDARD PLATE): inactive; negative | mutagenic call (Test System: Mouse lymphoma, Strain/Indicator: L5178Y (tk+/tk-), Metabolic Activation: Rat, Liver, S-9, Aroclor 1254, Method: Suspension/plate): active; positive

c1ccc2cc3c(cc2c1)cc1ccc2cccc4ccc3c1c24
mutagenic call (Test System: HUMAN H1A1V2 CELLS, Strain/Indicator: TK LOCUS, Metabolic Activation: NONE, Method: SUSPENSION/PLATE): active; positive
